5 molecules from ChEMBL document CHEMBL1135249, “Probing the overlap of chorismate mutase and prephenate dehydrogenase sites in the escherichia coli T-protein: a dehydrogenase-selective inhibitor” (Bioorg Med Chem Lett, 2002) can be followed below.

A short description of assay [1]: Tested for its inhibitory activity against the enzyme chorismate mutase (CM) in Escherichia coli T-protein; no effect up to 1 mM.
A short description of assay [2]: Tested for the inhibition against prephenate dehydrogenase. Also noted: species or system Escherichia coli.
Assay [3] can be described thus: Tested for its inhibitory activity against the enzyme prephenate dehydrogenase (PDH) in Escherichia coli T-protein.
The nature of assay [4]: Tested for its inhibitory activity against the enzyme chorismate mutase (CM) in Escherichia coli T-protein.

For the molecule `O=C(O)[C@@H]1Cc2cccc3cccc(c23)C[C@H]1C(=O)O` (racemic), the Ki (usually the equilibrium dissociation constant of an inhibitor or competing ligand from its target) in assay [1] was “no effect up to 1 mM”; in assay [3], 212 µM. Further, half-maximal inhibition in assay [2] (IC50) required 250 µM.

For the molecule `C=C(O[C@@H]1C=C(C(=O)O)CCC1O)C(=O)O` (stereo partly specified), the Ki in assay [4] was 430 µM; in assay [3] it was 590 µM.

As to `O=P(O)(O)C12C[C@H]3C[C@@H](C1)C[C@@H](C2)C3`, the Ki turned out to be 200 µM in assay [4] and 140 µM in assay [3].

Regarding `C=C(O[C@@H]1C=C(C(=O)O)C(O)C(O)[C@H]1O)C(=O)O` (stereo partly specified), the Ki was found to be 410 µM in assay [4] and 110 µM in assay [3].

For `O=C(O)[C@]12C[C@H]3C[C@H](C[C@H](C3)C1)C2`, the Ki in assay [4] amounted to 430 µM; in assay [3], 310 µM.
